Paper PMC11556372 (Journal of medicinal chemistry, 2023)
Read-outs that look alike come from different tables or passages of the source.

Legend:
[1] = type: in vitro ADME; details: 2 μM, pH 7.4
[2] = type: in vitro ADME; details: 2 μM, pH 7.4; remark: listed apart in the source
[3] = type: in vitro ADME; details: 2 μM, pH 7.4; remark: listed apart in the source
[4] = type: in vitro ADME; details: 2 μM, pH 7.4; remark: listed apart in the source
[5] = type: in vitro ADME; details: 2 μM, pH 7.4; remark: listed apart in the source
[6] = type: physicochemical; details: 24 h, 50 μg/mL
[7] = type: in vitro ADME; details: 2 μM, pH 7.4; remark: listed apart in the source
[8] = type: in vitro ADME; details: 2 μM, pH 7.4; remark: listed apart in the source
[9] = type: in vitro ADME; details: 2 μM, pH 7.4; remark: listed apart in the source
SARS-CoV-2 WA1 = assay: SARS-CoV-2 nucleoprotein ELISA in A549-hACE2-TMPRSS2 cells, WA1; type: cell-based
SARS-CoV-2 [10] = details: read-out: in vitro SARS-CoV-2 antiviral EC50; Vero E6 cells and primary lung cultures; cited from earlier work
in vivo = details: nonhuman primates, iv
in vitro [11] = details: human, microsomes
adenosine deaminase = target: T1, adenosine deaminase (Homo sapiens, UniProt P00813); assay: Metabolism by adenosine deaminase in vitro
T1 sequence (P00813 1-363): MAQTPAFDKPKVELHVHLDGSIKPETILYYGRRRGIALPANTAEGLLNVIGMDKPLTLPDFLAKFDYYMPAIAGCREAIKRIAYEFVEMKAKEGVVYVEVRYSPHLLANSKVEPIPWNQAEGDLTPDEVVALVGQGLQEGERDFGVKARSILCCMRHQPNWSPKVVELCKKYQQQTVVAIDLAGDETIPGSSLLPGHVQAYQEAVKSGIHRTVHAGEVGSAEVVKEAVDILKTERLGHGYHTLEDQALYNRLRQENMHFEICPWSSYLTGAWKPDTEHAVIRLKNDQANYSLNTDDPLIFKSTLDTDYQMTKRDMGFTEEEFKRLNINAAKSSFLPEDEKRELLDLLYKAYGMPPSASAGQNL

in vitro [12] = type: in vitro ADME; details: human, Caco-2, Caco-2 efflux ratio
Caco-2 cells = assay: in vitro; type: in vitro ADME; details: Caco-2
[13] = Thermodynamic solubility in pH 7 buffered solution; type: physicochemical
[14] = test system: three human carboxyesterases; assay: in vitro; type: in vitro ADME; details: pH 7.4
[15] = In vivo pharmacokinetics, rat; details: po, 6 mg/kg
[16] = in vivo
SARS-CoV-2 [17] = assay: AGM SARS-CoV-2 antiviral efficacy study
[18] = cited from earlier work
SARS-CoV-2 [19] = details: cited from earlier work
SARS-CoV-2-Nluc = assay: in vitro; details: human
[20] = read-out: mean Cmax of plasma 1; AGM, 1 iv 10 mg/kg day 1 dose; cited from earlier work
[21] = cited from earlier work; remark: listed apart in the source
[22] = Severe acute respiratory syndrome coronavirus 2, A549-hACE2-TMPRSS2, read-out: EC50 ± SD, WA1 (n = 2), reference run above Omicron BA.2.12.1, BA.4, BA.5

Structure (SMILES): CC(=O)OC[C@H]1O[C@@](C#N)(c2ccc3c(N)ncnn23)[C@H](OC(C)=O)[C@@H]1OC(C)=O [compound 7]
- liver S9 stability, rat [1]: <2/<2/<2/<2 min
- liver S9 stability, dog [2]: <2/<2/<2/<2 min
- liver S9 stability, cynomolgus monkey [3]: <2/<2/<2/<2 min
- liver S9 stability, human [4]: <2/<2/<2/<2 min

Structure (SMILES): CC(=O)OC[C@H]1O[C@@](C#N)(c2ccc3c(N)ncnn23)[C@H](O)[C@@H]1O [compound 5, ((2R,3S,4R,5R)-5-(4-Aminopyrrolo[2,1-f][1,2,4]triazin-7-yl)-5-cyano-3,4-dihydroxytetrahydrofuran-2-yl)methyl Acetate]
- GI S9 stability, rat [5]: < 2 min

Structure (SMILES): CC(C)C(=O)OC[C@H]1O[C@@](C#N)(c2ccc3c(N)ncnn23)[C@H](OC(=O)C(C)C)[C@@H]1OC(=O)C(C)C [compound 6]
- solution stability, pH 2 [6]: ≥96%
- solution stability, pH 7 [6]: ≥98%
- GI S9 stability, rat [5]: <2/<2/<2/<2 min
- GI S9 stability, dog [7]: <2/<2/<2/<2 min
- GI S9 stability, cynomolgus monkey [8]: <2/<2/<2/<2 min
- GI S9 stability, human [9]: <2/<2/<2/<2 min

Structure (SMILES): N#C[C@@]1(c2ccc3c(N)ncnn23)O[C@H](CO)[C@@H](O)[C@H]1O [compound 2, GS-441524]
- EC50 (SARS-CoV-2 WA1; [22]): 7360 ± 3460 nM
- EC50 (SARS-CoV-2 [10]): 1000 to 2000 nM
- half-life (in vivo): 2.6 to 2.7 h
- half-life (in vitro [11]): > 8 h
- metabolism by adenosine deaminase (adenosine deaminase): weak substrates or inhibitors

Structure (SMILES): CC(C)C(=O)OC[C@H]1O[C@@](C#N)(c2ccc3c(N)ncnn23)[C@H](O)[C@@H]1O [compound 3, ((2R,3S,4R,5R)-5-(4-Aminopyrrolo[2,1-f][1,2,4]triazin-7-yl)-5-cyano-3,4-dihydroxytetrahydrofuran-2-yl)methyl Isobutyrate]
- efflux ratio at 2 h (in vitro [12]): < 3
- fold improved forward permeability over parent 2 (Caco-2 cells): ~ 10 fold
- fold improved pH 7 solubility over 2 [13]: > 10 fold
- fold improved pH 7 solubility over 6 [13]: > 100 fold
- solution stability, pH 2 [6]: ≥94%
- solution stability, pH 7 [6]: ≥96%
- GI S9 stability, rat [5]: <2/<2/<2/<2 min
- GI S9 stability, dog [7]: <2/<2/<2/<2 min
- GI S9 stability, cynomolgus monkey [8]: <2/<2/<2/<2 min
- GI S9 stability, human [9]: <2/<2/<2/<2 min
- half-life at 2 μM [14]: < 4.3 min
- AUC0–24 of 3 [15]: BLQ
- EC50 (SARS-CoV-2 WA1; [22]): 1570 ± 210 nM
- EC50 (SARS-CoV-2 WA1; Severe acute respiratory syndrome coronavirus 2, A549-hACE2-TMPRSS2, read-out: EC50 ± SD, WA1 (n = 2), reference run above Omicron BA.4.6, BF.5): 3960 ± 290 nM
- simulated human Cave [16]: ≈ 4.6 μM
- SARS-CoV-2 infectious and RNA loads in throat swabs (SARS-CoV-2 [17]; 1, 2, and 6 dpi, both dose groups): significant reductions
- infectious viral loads in the BALF (SARS-CoV-2 [17]; 60 or 120 mg/kg oral once daily, throughout infection): statistically significant decreases
- genomic RNA loads in BALF (SARS-CoV-2 [17]; 60 or 120 mg/kg, exception 60 mg/kg at day 1 post-infection): significantly reduced at nearly all study time points assessed
- infectious virus in throat and nasal swabs (SARS-CoV-2 [17]; after day 4 post-infection, either dose group): no detectable infectious virus
- viral RNA levels in terminal respiratory tissues (SARS-CoV-2 [17]; study day 6, both doses): significant reductions of viral RNA levels in 5 out of the 6 respiratory tissues evaluated
- metabolism by adenosine deaminase (adenosine deaminase): weak substrates or inhibitors

Structure (SMILES): [N-]=[N+]=N[C@]1(CO)O[C@@H](n2ccc(N)nc2=O)[C@H](O)[C@@H]1O [R1479]
- estimated oral bioavailability ([18]; human, in vivo, po): 6–18%

Structure (SMILES): CCC(CC)COC(=O)[C@H](C)N[P@](=O)(OC[C@H]1O[C@@](C#N)(c2ccc3c(N)ncnn23)[C@H](O)[C@@H]1O)Oc1ccccc1 [compound 1, Remdesivir]
- EC50 (SARS-CoV-2 WA1; [22]): 160 ± 0.6 nM
- fold change ± SD from WA1 (SARS-CoV-2 WA1; WA1 (n = 2), reference run above Omicron BA.2): 1.0
- fold change ± SD from WA1 (SARS-CoV-2 WA1; WA1 (n = 2), reference run above Omicron BA.2.12.1, BA.4, BA.5): 1.0
- fold change ± SD from WA1 (SARS-CoV-2 WA1; WA1 (n = 2), reference run above Omicron BA.2.75): 1.0
- fold change ± SD from WA1 (SARS-CoV-2 WA1; WA1 (n = 2), reference run above Omicron BA.4.6, BF.5): 1.0
- fold change ± SD from WA1 (SARS-CoV-2 WA1; WA1 (n = 2), reference run above Omicron XBB, BQ.1.1): 1.0
- fold change ± SD from WA1 (SARS-CoV-2 WA1; WA1 (n = 3), reference run above Delta): 1.0
- fold change ± SD from WA1 (SARS-CoV-2 WA1; WA1 (n = 7), reference run above Omicron BA.1): 1.0
- reduction in hospitalizations (SARS-CoV-2 [19]; high-risk nonhospitalized patients (PINETREE), 3-day iv): 87%
- effectiveness in reducing hospitalization (SARS-CoV-2 [19]; outpatient high-risk patients, 5-day oral Paxlovid, 3-day iv 1): ≥ 87%
- shortening of hospitalization duration (SARS-CoV-2 [19]; patients hospitalized with COVID-19 (ACTT-1), iv): 5 days
- selectivity ratio (SARS-CoV-2-Nluc): ≥ 300
- Cmax [20]: 12.6 µM
- half-life ([21]; NHPs): 0.4 to 0.8 h
- oral bioavailability of the intact prodrug ([21]; nonhuman primates): < 1%
- AUC0–24h of 1 ([18]; 100 mg maintenance dose in humans): 2.6 µM·h
